Results as given in US12428406B2 (PMV Pharmaceuticals, Inc., priority 2019, dated 2025).

Target: T1, p53 Y220C (Homo sapiens, UniProt P04637, Y220C)
T1 construct: The recombinant protein was a truncation mutant containing only amino acids 94-312 of p53; made in house; host or cells: E. coli
Assay: In vitro DNA binding activity assay (HTRF / TR-FRET): stabilization of p53 Y220C and increase of its DNA binding activity
Format: biochemical
Conditions: recombinant His-tagged p53 Y220C DNA binding domain (aa 94-312), biotin-labeled consensus DNA, incubated at 27° C. or 29° C. for 60 min
Summary of the method: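 Compounds from 4.5 mM DMSO stocks, 3-fold serial dilutions; room-temperature incubations of 15 and 20 min. SC150 = concentration raising DNA binding by 50% over no-compound control.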

T1 sequence (P04637 94-312, change not shown): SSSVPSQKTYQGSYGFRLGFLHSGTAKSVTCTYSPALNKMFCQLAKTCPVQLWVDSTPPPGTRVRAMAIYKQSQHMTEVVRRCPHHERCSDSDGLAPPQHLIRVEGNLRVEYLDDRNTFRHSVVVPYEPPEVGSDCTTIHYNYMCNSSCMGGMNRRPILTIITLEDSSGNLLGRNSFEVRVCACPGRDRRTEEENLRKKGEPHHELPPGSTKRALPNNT

SC150 (concentration of the compound required to increase the DNA binding activity by 50%), + (+ = 0 μM ≤ SC150 < 0.05 μM):
COc1cc(C(=O)O)ccc1NCC#Cc1cc2c(N[C@H]3CCN(C(C)C)C[C@H]3F)cccc2n1CC(F)(F)F [Compound 810A, 4-{[3-(4-{[(3R,4S)-3-fluoro-1-(propan-2-yl)piperidin-4-yl]amino}-1-(2,2,2-trifluoroethyl)-1H-indol-2-yl)prop-2-yn-1-yl]amino}-3-methoxybenzoic acid]
CCN1CC[C@@H](Nc2cccc3c2cc(C#CCNc2ccc(S(C)(=O)=O)cc2OC)n3CC(F)(F)F)[C@@H](F)C1 [Compound 812A]
CCN1CC[C@H](Nc2cccc3c2cc(C#CCNc2ccc(S(C)(=O)=O)cc2OC)n3CC(F)(F)F)[C@H](F)C1 [Compound 813A]
CCOC(=O)c1ccc(NCC#Cc2cc3c(N[C@@H]4CCN(C(C)C)C[C@@H]4F)cccc3n2CC(F)(F)F)c(OC)c1 [Compound 821A]
CCOC(=O)c1ccc(NCC#Cc2cc3c(N[C@@H]4CCN(CC)C[C@@H]4F)cccc3n2CC(F)(F)F)c(OC)c1 [Compound 823A]
CCOC(=O)c1ccc(NCC#Cc2cc3c(N[C@H]4CCN(CC)C[C@H]4F)cccc3n2CC(F)(F)F)c(OC)c1 [Compound 824A]
CCOC(=O)c1ccc(NCC#Cc2cc3c(N[C@H]4CCN(C(C)C)C[C@H]4F)cccc3n2CC(F)(F)F)c(OC)c1 [Compound 825A]
CNC(=O)c1cc(OC)c(NCC#Cc2cc3c(N[C@@H]4CCN(C)C[C@@H]4F)cccc3n2CC(F)(F)F)cc1F [Compound 826A, 2-fluoro-4-{[3-(4-{[(3S,4R)-3-fluoro-1-methylpiperidin-4-yl]amino}-1-(2,2,2-trifluoroethyl)-1H-indol-2-yl)prop-2-yn-1-yl]amino}-5-methoxy-N-methylbenzamide]
CNC(=O)c1cc(OC)c(NCC#Cc2cc3c(N[C@H]4CCN(C)C[C@H]4F)cccc3n2CC(F)(F)F)cc1F [Compound 827A, 2-fluoro-4-{[3-(4-{[(3R,4S)-3-fluoro-1-methylpiperidin-4-yl]amino}-1-(2,2,2-trifluoroethyl)-1H-indol-2-yl)prop-2-yn-1-yl]amino}-5-methoxy-N-methylbenzamide]
CCN1CC[C@H](Nc2cccc3c2cc(C#CCNc2ccc(C(=O)O)cc2OC)n3CC(F)(F)F)[C@H](F)C1 [Compound 828A, 4-{[3-(4-{[(3R,4S)-1-ethyl-3-fluoropiperidin-4-yl]amino}-1-(2,2,2-trifluoroethyl)-1H-indol-2-yl)prop-2-yn-1-yl]amino}-3-methoxybenzoic acid]
CCN1CC[C@@H](Nc2cccc3c2cc(C#CCNc2ccc(C(=O)O)cc2OC)n3CC(F)(F)F)[C@@H](F)C1 [Compound 829A, 4-{[3-(4-{[(3S,4R)-1-ethyl-3-fluoropiperidin-4-yl]amino}-1-(2,2,2-trifluoroethyl)-1H-indol-2-yl)prop-2-yn-1-yl]amino}-3-methoxybenzoic acid]
CN1CC[C@@H](Nc2cccc3c2cc(C#CCNc2ccc(S(C)(=O)=O)cc2O)n3CC(F)(F)F)[C@@H](F)C1 [Compound 834A, 2-{[3-(4-{[(3S,4R)-3-fluoro-1-methylpiperidin-4-yl]amino}-1-(2,2,2-trifluoroethyl)-1H-indol-2-yl)prop-2-yn-1-yl]amino}-5-methanesulfonylphenol]
CN1CC[C@H](Nc2cccc3c2cc(C#CCNc2ccc(S(C)(=O)=O)cc2O)n3CC(F)(F)F)[C@H](F)C1 [Compound 835A, 2-{[3-(4-{[(3R,4S)-3-fluoro-1-methylpiperidin-4-yl]amino}-1-(2,2,2-trifluoroethyl)-H-indol-2-yl)prop-2-yn-1-yl]amino}-5-methanesulfonylphenol]
COc1cc(S(=O)(=O)NC(C)=O)ccc1NCC#Cc1cc2c(N[C@@H]3CCN(C)C[C@@H]3F)cccc2n1CC(F)(F)F [Compound 837A, N-(4-{[3-(4-{[(3S,4R)-3-fluoro-1-methylpiperidin-4-yl]amino}-1-(2,2,2-trifluoroethyl)-1H-indol-2-yl)prop-2-yn-1-yl]amino}-3-methoxybenzenesulfonyl)acetamide]
COc1cc(S(=O)(=O)NC(C)=O)ccc1NCC#Cc1cc2c(N[C@H]3CCN(C)C[C@H]3F)cccc2n1CC(F)(F)F [Compound 838A, N-(4-{[3-(4-{[(3R,4S)-3-fluoro-1-methylpiperidin-4-yl]amino}-1-(2,2,2-trifluoroethyl)-1H-indol-2-yl)prop-2-yn-1-yl]amino}-3-methoxybenzenesulfonyl)acetamide]
CCOC(=O)c1ccc(NCC#Cc2cc3c(N[C@@H]4CCN(C)C[C@@H]4F)cccc3n2CC(F)(F)F)c(OC)c1 [Compound 839A, Ethyl 4-((3-(4-(((3S,4R)-3-fluoro-1-methylpiperidin-4-yl)amino)-1-(2,2,2-trifluoroethyl)-1H-indol-2-yl)prop-2-yn-1-yl)amino)-3-methoxybenzoate]
CCOC(=O)c1ccc(NCC#Cc2cc3c(N[C@H]4CCN(C)C[C@H]4F)cccc3n2CC(F)(F)F)c(OC)c1 [Compound 840A, ethyl 4-((3-(4-(((3R,4S)-3-fluoro-1-methylpiperidin-4-yl)amino)-1-(2,2,2-trifluoroethyl)-1H-indol-2-yl)prop-2-yn-1-yl)amino)-3-methoxybenzoate]
CN1CC[C@H](Nc2cccc3c2cc(C#CCNc2ccc(S(C)(=O)=O)cc2OCF)n3CC(F)(F)F)[C@H](F)C1 [Compound 841A]
CN1CC[C@@H](Nc2cccc3c2cc(C#CCNc2ccc(S(C)(=O)=O)cc2OCF)n3CC(F)(F)F)[C@@H](F)C1 [Compound 842A]
CCOc1cc(S(C)(=O)=O)ccc1NCC#Cc1cc2c(N[C@@H]3CCN(C)C[C@@H]3F)cccc2n1CC(F)(F)F [Compound 843A]
CCOc1cc(S(C)(=O)=O)ccc1NCC#Cc1cc2c(N[C@H]3CCN(C)C[C@H]3F)cccc2n1CC(F)(F)F [Compound 844A]
COc1cc(S(N)(=O)=O)ccc1NCC#Cc1cc2c(N[C@@H]3CCNC[C@@H]3F)cccc2n1CC(F)(F)F [Compound 845A]
COc1cc(S(N)(=O)=O)ccc1NCC#Cc1cc2c(N[C@H]3CCNC[C@H]3F)cccc2n1CC(F)(F)F [Compound 846A]
COc1cc(S(C)(=O)=O)ccc1NCC#Cc1cc2c(N[C@H]3CCNC[C@H]3F)cccc2n1CC(F)(F)F [Compound 848A]
COc1cc(C(N)=O)ccc1NCC#Cc1cc2c(N[C@@H]3CCNC[C@@H]3F)cccc2n1CC(F)(F)F [Compound 849A, 4-{[3-(4-{[(3S,4R)-3-fluoropiperidin-4-yl]amino}-1-(2,2,2-trifluoroethyl)-1H-indol-2-yl)prop-2-yn-1-yl]amino}-3-methoxybenzamide]
CNC(=O)c1ccc(NCC#Cc2cc3c(N[C@H]4CCNC[C@H]4F)cccc3n2CC(F)(F)F)c(OC)c1 [Compound 851A]
COc1cc(C(=O)O)ccc1NCC#Cc1cc2c(N[C@H]3CCNC[C@H]3F)cccc2n1CC(F)(F)F [Compound 852A]
COc1cc(S(C)(=O)=O)ccc1NCC#Cc1cc2c(N[C@@H]3CCN(CCO)C[C@@H]3F)cccc2n1CC(F)(F)F [Compound 853A, 2-[(3S,4R)-3-fluoro-4-[(2-{3-[(4-methanesulfonyl-2-methoxyphenyl)amino]prop-1-yn-1-yl}-1-(2,2,2-trifluoroethyl)-1H-indol-4-yl)amino]piperidin-1-yl]ethan-1-ol]
COc1cc(S(C)(=O)=O)ccc1NCC#Cc1cc2c(N[C@H]3CCN(CCO)C[C@H]3F)cccc2n1CC(F)(F)F [Compound 854A, 2-[(3R,4S)-3-fluoro-4-[(2-{3-[(4-methanesulfonyl-2-methoxyphenyl)amino]prop-1-yn-1-yl}-1-(2,2,2-trifluoroethyl)-1H-indol-4-yl)amino]piperidin-1-yl]ethan-1-ol]
